The record followed here is patent US20260256790A1, “DEBIO-0123 IN COMBINATION WITH TEMOZOLOMIDE AND RADIOTHERAPY FOR USE IN TREATING GLIOMA” (Debiopharm International S.A., priority 2023, published 2026).

The nature of this data set: Drug concentration in monkey brain and plasma after daily oral administration for 91 days. To be noted: 10 mg/kg oral once a day for 91 days; for Kp at 24 h / concentration at 24 h: female, cynomolgus monkey, 10 mg/kg; for Kp at 24 h: brain (left forebrain) / plasma, po; for concentration at 24 h: oral. Type of data set: in vivo, cynomolgus monkeys. As to the method:
Compound of formula (I) was orally given to 3 female cynomolgus monkeys by gavage once a day for 91 days. The volume of administration was 5 mL/kg, and the vehicle was an aqueous solution of 0.5% (w/v) methylcellulose (cps 400) and 1% (w/v) Tween 80. The Compound of formula (I) dose was 10 mg/kg; this dose level was assessed in this study to be the […] no adverse effect level (NOAEL) based on general toxicology evaluation. The animals were necropsied 24 hours after the last dose after an overnight period without food. A sample from brain tissue (left forebrain) was collected from each animal, snap frozen in liquid nitrogen. and stored frozen at <−50° C. Blood samples were taken from the femoral vein into tubes containing K2EDTA, fully inverted approximately 10 times, and placed on crushed wet ice until centrifugation at 2300 g for 10 minutes at approximately 4° C. The resultant plasma was separated, transferred into polypropylene tubes, and frozen at <−50° C. Tissue and plasma samples were transported frozen on dry ice to the respective sites of analysis.
The monkey plasma samples were analyzed for their contents in Compound of formula (I) and N^32-desmethyl-Compound of formula (I) as follows. The plasma samples were fortified in human K2-EDTA plasma (1:9 monkey:human volume ratio) prior to extraction. All solution preparations and dilutions were conducted under sodium vapor light and in “low-binding” quality polypropylene tubes and deep-well plates. The analytes and internal standards (^13CD6-Compound of formula (I) and D7-N^32-desmethyl-Compound of formula (I)) were extracted by protein precipitation with 5M aqueous urea (40 μL for 50 μL plasma), and then analyzed by LC-MS/MS. Chromatographic separation was achieved on an Synergi Polar-RP, 80A, 4 μm 75×2.00 mm column (Phenomenex) with gradient elution using a mixture of 0.1% formic acid in water as eluent A and 0.1% formic acid in acetonitrile as eluent B (5% B from 0 to 0.50 min, 42% B at 4.5 min, 95% B from 4.60 min to 5.50 min, 5% B at 5.60 min, 100% B at 5.70 min, 5% B at 6.40 min, 100% B at 6.50 min, 5% B at 7.00 min; 800 μl/min, 70° C.). Detection was accomplished with a AB Sciex 6500+ mass spectrometer utilizing electrospray MS/MS in positive ion multiple reaction monitoring mode (MRM). The lower limits of quantification for Compound of formula (I) and N^32-desmethyl-Compound of formula (I) were 5.00 ng/mL and 2.50 ng/mL, respectively.
The monkey brain tissue samples were analyzed for their contents in Compound of formula (I) and N^32-desmethyl-Compound of formula (I) as follows. Tissue samples were homogenized in human plasma (1 mg tissue for 10 μL plasma) at +4° C. using a Precelly Evolution system. The analytes (Compound of formula (I) and N^32-desmethyl-Compound of formula (I)) were extracted by protein precipitation with methanol/acetonitrile (9:1, v:v) containing the internal standards (^13CD6-Compound of formula (I) and D7-N^32-desmethyl-Compound of formula (I)) and then analyzed by UHPLC-MS/MS. Chromatographic separation was achieved on a HSS T3 1.8 μm, 2.1×100 mme column (Waters) with gradient elution using a mixture of 0.1% formic acid in water as eluent A, and 0.1% formic acid in acetonitrile as eluent B (20% B from 0 to 0.50 min, 90% B from 1.80 min to 2.30 min, 20% B at 2.60 min; 0.6 mL/min, room temperature). Detection was accomplished with Xevo TQ-S mass spectrometer (Waters) utilizing electrospray MS/MS in positive ion multiple reaction monitoring mode (MRM). The lower limits of quantification for Compound of formula (I) and N^32-desmethyl-Compound of formula (I) were 55.00 ng/g tissue and 22.00 ng/g tissue, respectively.

SMILES strings stand for the structures. Values joined by “and” are separate entries in the source; they are usually repeats but may differ in a detail not shown here. Equal values may be shown once. Read-outs that look alike come from different tables or passages of the source.

Take `Cc1cc(Nc2ncc3c(n2)N(C)CN(c2c(Cl)cccc2Cl)C3=O)ccc1C1CCN(C)CC1` [Compound of formula (I)]: the “Brain:plasma concentration ratio, at 24 h post last dose” value (individual animals) is 4.18 and 4.57. Also, the “Plasma concentration at 24 h post last dose” value (individual animals) is 929 ng/mL and 632 ng/mL. For the same molecule, under “left forebrain, individual animals”, the “Brain concentration at 24 h post last dose” value was 3885 ng/g tissue and 2886 ng/g tissue. For the same molecule, the Kp at 24 h turned out to be 4.2 (individual animals, read-out: Brain:plasma concentration ratio, at 24 h post last dose) and 4.32 ± 0.22 (read-out: Mean brain:plasma ratio (±SD), at 24 h post last dose (n = 3)). The concentration at 24 h (brain (left forebrain), left forebrain, individual animals, read-out: Brain concentration at 24 h post last dose) was found to be 4790 ng/g and the concentration at 24 h (plasma, individual animals, read-out: Plasma concentration at 24 h post last dose) is 1140 ng/mL.
